The source of these data is ChEMBL document CHEMBL1153651, “Synthesis and biology of the rigidified glutamate analogue, trans-2-carboxyazetidine-3-acetic acid (t-CAA)” (Bioorg Med Chem Lett, 1996).

Broadly, the inhibition is the drop in the measured response relative to a control, in per cent. Low values mean little suppression, high ones strong suppression. Usually IC50 stands for the concentration needed to halve the response being measured. As usually defined, the EC50 is the concentration that produces a half-maximal response. Low values mean higher potency in that assay, high ones lower potency in that assay.

Experiment [1] addresses T1, Metabotropic glutamate receptor 6 (Homo sapiens, UniProt O15303). Kind of experiment: Compound was tested for its agonist activity against mGluR 6 receptor in CHO cells. Type of experiment: functional, cell-based. Particulars: Cricetulus griseus.
Experiment [2] deals with T1, Metabotropic glutamate receptor 6. Kind of experiment: Compound was tested for its agonist activity against mGluR 6 receptor in CHO cells. The class given is functional, cell-based, Cricetulus griseus.
A further experiment deals with Glutamate receptor 1 (Rattus norvegicus, UniProt P19490). Kind of experiment: Compound was tested in vitro for binding affinity against Ionotropic glutamate receptor AMPA, using [3H]TCP as the radioligand.
The target of experiment [3] is Metabotropic glutamate receptor 1 (Rattus norvegicus, UniProt P23385). Nature of the experiment: Compound was tested in vitro for binding affinity against mGluR1a metabotropic glutamate receptor, using [3H]glutamate as the radioligand.
Chain of Metabotropic glutamate receptor 1 (Rattus norvegicus, UniProt P23385) (P23385 whole entry): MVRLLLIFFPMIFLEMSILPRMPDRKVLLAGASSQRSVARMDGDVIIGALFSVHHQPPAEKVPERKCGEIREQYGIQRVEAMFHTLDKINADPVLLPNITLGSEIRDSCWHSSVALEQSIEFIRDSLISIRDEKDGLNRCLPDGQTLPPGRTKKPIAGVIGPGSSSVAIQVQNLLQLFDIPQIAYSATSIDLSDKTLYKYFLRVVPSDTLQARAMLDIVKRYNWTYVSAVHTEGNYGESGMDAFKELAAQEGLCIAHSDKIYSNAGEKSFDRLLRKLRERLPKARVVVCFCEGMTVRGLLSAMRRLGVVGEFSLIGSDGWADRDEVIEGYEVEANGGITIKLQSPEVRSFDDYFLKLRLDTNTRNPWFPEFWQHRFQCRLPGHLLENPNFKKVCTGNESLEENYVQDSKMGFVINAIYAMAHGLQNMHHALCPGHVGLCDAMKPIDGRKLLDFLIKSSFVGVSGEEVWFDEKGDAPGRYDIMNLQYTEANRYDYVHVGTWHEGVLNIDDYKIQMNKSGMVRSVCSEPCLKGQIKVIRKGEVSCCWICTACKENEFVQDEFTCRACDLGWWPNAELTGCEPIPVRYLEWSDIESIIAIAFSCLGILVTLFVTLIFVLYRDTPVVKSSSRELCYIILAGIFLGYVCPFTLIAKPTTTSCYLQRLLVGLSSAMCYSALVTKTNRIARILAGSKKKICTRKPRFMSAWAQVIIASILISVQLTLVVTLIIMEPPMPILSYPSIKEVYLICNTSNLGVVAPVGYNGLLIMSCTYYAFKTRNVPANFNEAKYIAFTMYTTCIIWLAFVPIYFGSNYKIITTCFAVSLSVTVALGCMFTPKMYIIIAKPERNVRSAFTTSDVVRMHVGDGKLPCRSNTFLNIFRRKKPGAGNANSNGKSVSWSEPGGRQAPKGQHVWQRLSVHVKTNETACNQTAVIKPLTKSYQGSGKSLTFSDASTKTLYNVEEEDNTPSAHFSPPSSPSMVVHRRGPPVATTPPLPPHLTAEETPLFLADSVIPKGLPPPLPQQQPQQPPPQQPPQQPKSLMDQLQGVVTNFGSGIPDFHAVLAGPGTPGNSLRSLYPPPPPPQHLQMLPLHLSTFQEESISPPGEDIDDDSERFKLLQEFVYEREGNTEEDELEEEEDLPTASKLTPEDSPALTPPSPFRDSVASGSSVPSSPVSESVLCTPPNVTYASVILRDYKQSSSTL
The target in experiment [4] is T2, Metabotropic glutamate receptor 2 (Homo sapiens, UniProt Q14416). Kind of experiment: Compound was tested for its agonist activity against mGluR 2 receptor in CHO cells. The class given is functional, cell-based. Particulars: Cricetulus griseus.
Target sequence in this assay (Q14416 19-872 limits assumed): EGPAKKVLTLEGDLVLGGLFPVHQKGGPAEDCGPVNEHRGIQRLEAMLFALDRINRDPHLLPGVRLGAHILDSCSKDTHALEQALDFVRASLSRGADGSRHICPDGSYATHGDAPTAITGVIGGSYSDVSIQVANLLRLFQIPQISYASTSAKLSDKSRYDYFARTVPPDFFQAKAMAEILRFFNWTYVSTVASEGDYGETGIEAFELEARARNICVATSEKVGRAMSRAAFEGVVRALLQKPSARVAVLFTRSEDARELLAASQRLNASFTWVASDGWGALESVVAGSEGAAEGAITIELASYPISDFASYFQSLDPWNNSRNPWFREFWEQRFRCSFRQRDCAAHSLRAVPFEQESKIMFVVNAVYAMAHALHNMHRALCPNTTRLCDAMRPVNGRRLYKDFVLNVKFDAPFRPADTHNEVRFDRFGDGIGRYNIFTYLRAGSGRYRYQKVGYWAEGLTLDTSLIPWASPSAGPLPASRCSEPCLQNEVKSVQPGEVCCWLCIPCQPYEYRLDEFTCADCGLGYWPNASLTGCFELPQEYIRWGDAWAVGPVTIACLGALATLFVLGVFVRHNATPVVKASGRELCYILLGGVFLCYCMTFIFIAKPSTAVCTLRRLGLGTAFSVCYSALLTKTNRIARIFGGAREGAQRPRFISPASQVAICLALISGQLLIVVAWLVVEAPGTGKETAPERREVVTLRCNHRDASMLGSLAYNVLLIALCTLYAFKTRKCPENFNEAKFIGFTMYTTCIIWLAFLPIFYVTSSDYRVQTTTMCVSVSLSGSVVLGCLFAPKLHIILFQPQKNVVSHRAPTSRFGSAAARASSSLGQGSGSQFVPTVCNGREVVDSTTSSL
Experiment [5] concerns the target Glutamate receptor ionotropic, AMPA (Rattus norvegicus, UniProt P19490+P19491+P19492+P19493). Kind of experiment: Compound was tested in vitro for binding affinity against Ionotropic glutamate receptor AMPA, using [3H]AMPA as the radioligand in rat cerebral cortical membranes. The class given is cell membranes.
Experiment [6] deals with T2, Metabotropic glutamate receptor 2. Kind of experiment: Compound was tested for its antagonist activity against mGluR 2 receptor in CHO cells. The class given is functional, cell-based, Cricetulus griseus.
Target sequence in this assay (Q14416 whole entry): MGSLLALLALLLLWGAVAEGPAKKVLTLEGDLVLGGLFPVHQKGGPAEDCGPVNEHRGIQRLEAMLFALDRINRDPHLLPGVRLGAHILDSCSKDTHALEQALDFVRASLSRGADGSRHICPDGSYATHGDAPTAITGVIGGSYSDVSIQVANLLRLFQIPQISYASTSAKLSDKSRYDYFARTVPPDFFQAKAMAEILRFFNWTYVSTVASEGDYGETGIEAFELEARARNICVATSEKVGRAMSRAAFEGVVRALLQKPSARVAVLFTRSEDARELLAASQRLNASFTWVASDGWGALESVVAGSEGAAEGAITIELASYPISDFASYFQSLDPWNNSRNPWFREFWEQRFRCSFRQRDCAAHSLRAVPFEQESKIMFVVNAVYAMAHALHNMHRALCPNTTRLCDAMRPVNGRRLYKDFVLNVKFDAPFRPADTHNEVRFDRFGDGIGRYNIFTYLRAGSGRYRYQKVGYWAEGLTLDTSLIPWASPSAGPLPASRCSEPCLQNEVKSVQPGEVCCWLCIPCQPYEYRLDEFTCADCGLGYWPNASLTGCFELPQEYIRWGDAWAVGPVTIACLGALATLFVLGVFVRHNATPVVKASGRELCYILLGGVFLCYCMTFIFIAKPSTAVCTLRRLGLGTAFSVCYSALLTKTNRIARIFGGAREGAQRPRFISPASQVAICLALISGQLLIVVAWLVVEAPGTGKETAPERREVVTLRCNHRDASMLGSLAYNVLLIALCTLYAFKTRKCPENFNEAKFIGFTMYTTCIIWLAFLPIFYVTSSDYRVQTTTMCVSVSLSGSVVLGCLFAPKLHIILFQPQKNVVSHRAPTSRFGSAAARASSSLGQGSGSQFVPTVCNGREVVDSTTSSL
Experiment [7] has as its target T1, Metabotropic glutamate receptor 6. Kind of experiment: Compound was tested for its antagonist activity against mGluR 6 receptor in CHO cells. Type of experiment: functional, cell-based, Cricetulus griseus.
In experiment [8] the target is Glutamate receptor ionotropic, kainate 3 (Rattus norvegicus, UniProt P42264). Kind of experiment: Compound was tested in vitro for binding affinity against Ionotropic glutamate receptor kainate using [3H]kainate as the radioligand.
In the next experiment the target is Glutamate NMDA receptor. Nature of the experiment: Compound was tested in vitro for binding affinity against NMDA receptor, using [3H]CPP as the radioligand in rat cerebral cortical membranes. Type of experiment: cell membranes.
Experiment [9] deals with Metabotropic glutamate receptor 4 (Rattus norvegicus, UniProt P31423). Nature of the experiment: Compound was tested in vitro for binding affinity against mGluR4a metabotropic glutamate receptor, using [3H]L-AP4 as the radioligand.
Experiment [10] has as its target Metabotropic glutamate receptor 1 (Homo sapiens, UniProt Q13255). Nature of the experiment: Compound was tested for its agonist activity against mGluR1a receptor in CHO cells. The class given is functional, cell-based, Cricetulus griseus.
Experiment [11] addresses T3, Metabotropic glutamate receptor 5 (Homo sapiens, UniProt P41594). Nature of the experiment: Compound was tested for its agonist activity against mGluR 5a receptor in CHO cells. Type of experiment: functional, cell-based. The conditions noted are these: Cricetulus griseus.
The target of experiment [12] is T2, Metabotropic glutamate receptor 2. Kind of experiment: Compound was tested for its agonist activity against mGluR 2 receptor in CHO cells. The class given is functional, cell-based, Cricetulus griseus.
Target sequence in this assay (Q14416 whole entry): as above
Experiment [13] deals with T3, Metabotropic glutamate receptor 5. Nature of the experiment: Compound was tested for its agonist activity against mGluR 5a receptor in CHO cells. The class given is functional, cell-based, Cricetulus griseus.
Target sequence in this assay (P41594 whole entry): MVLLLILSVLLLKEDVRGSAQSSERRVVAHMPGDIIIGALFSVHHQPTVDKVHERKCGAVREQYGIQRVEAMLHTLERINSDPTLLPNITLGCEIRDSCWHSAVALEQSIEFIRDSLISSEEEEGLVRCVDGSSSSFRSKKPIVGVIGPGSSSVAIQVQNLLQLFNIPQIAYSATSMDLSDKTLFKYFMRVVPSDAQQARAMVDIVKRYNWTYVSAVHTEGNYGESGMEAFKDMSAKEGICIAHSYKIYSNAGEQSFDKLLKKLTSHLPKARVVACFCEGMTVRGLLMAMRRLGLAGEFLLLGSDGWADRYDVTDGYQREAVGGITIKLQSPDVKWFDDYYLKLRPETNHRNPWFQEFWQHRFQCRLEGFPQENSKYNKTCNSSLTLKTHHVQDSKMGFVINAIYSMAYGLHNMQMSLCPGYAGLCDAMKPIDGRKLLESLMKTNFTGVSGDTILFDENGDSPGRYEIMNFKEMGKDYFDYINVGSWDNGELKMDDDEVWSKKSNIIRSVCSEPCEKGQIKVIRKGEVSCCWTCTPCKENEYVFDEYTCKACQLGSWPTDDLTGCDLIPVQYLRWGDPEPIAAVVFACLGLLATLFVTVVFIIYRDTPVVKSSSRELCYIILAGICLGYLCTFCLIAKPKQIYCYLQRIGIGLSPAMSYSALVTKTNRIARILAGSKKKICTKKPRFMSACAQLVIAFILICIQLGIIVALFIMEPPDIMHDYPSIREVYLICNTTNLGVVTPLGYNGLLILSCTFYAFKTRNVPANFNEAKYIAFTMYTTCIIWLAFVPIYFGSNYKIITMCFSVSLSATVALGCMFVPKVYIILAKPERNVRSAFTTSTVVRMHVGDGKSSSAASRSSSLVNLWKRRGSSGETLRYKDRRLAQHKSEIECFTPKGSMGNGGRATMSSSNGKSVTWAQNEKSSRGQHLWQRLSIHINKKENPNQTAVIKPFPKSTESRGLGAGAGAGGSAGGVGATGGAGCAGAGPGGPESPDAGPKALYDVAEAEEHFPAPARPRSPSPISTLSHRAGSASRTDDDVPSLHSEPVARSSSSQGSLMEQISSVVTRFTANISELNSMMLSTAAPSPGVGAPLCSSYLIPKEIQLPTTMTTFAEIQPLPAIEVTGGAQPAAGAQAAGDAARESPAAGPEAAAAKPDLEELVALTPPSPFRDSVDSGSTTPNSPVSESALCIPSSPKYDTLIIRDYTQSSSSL
The species entered for experiment [14] is Rattus norvegicus. Kind of experiment: Compound was tested in vitro for binding affinity against sodium dependent [3H]glu-uptake into rat cortical synaptosomes, using [3H]-glutamate as the radioligand. Type of experiment: functional. Particulars: Brain.
For experiment [15], the species on record is Rattus norvegicus. Nature of the experiment: Compound was tested in vitro for binding affinity against calcium chloride dependent glutamate uptake site, using [3H]L-AP4 as the radioligand in rat cortical membranes. The class given is functional.

Where only a bound is given, the exact number is not on record here.

T1 sequence (O15303 whole entry): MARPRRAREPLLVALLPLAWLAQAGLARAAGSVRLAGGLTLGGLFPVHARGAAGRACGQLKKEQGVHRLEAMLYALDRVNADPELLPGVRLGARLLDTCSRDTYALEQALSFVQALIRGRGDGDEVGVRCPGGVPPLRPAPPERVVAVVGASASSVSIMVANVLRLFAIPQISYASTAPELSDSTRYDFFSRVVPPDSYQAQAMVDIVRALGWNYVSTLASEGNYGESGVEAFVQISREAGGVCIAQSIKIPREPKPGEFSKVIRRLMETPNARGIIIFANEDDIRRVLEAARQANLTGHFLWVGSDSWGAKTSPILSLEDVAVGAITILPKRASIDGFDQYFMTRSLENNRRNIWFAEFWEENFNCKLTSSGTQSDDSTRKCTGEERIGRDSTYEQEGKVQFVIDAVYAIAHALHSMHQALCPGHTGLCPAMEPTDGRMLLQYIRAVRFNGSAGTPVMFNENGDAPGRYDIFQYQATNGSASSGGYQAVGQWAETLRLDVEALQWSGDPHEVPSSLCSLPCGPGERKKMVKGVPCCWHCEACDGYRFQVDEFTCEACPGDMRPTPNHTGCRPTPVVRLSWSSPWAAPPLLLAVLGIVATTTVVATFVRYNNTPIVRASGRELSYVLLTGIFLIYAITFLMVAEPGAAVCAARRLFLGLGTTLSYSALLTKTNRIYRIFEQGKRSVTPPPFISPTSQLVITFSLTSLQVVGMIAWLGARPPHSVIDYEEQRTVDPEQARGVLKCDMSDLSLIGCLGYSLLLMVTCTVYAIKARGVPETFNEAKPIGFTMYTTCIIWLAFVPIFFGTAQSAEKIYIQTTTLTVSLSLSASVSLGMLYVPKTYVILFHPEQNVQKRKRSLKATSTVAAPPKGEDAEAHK

As to `O=C(O)C[C@H]1CN[C@@H]1C(=O)O`, the figures for the Max response in experiment [1], in experiment [4] and in [11] were 17%, 0% and 95%, respectively. The inhibition in experiment [1] (concentration not given here) amounted to 0%; in experiment [4] (concentration not given here), 40%. In addition, the IC50 in experiment [2] was over 300 µM; on Glutamate receptor 1 it was over 660 µM; in experiment [3], 12 µM; in experiment [5], 13 µM; in experiment [6] it was over 600 µM; in [7] it was over 300 µM. Also, the IC50 in [8] was found to be 0.7 µM; at Glutamate NMDA receptor, 49 µM; in experiment [9], 315 µM; in the experiment listed under Rattus norvegicus [14] it was 5 µM; in the experiment listed under Rattus norvegicus [15], 33 µM. Besides, the results for the EC50 in [10], in experiment [12] and in experiment [13] were 210 µM, over 600 µM and 105 µM, respectively.
